Assay type in all cases: cell-based
For assay [1], the system named is KS62 strain stem-cell human leukemia cells. Description: Inhibition of human leukemia cell growth in vitro, as done in Example 3. The note with it: for inhibition at 1 µg/mL / inhibition at 5 µg/mL / inhibition at 10 µg/mL: Homo sapiens. The procedure:
A conventionally available cell line (K562) derived from human chronic granulocytic leukemia was employed in an in vitro procedure. The leukemia cell line was cultured in a suspension of RPMI 1640 plus 10% fetal calf serum. All initial cell concentrations for the cultures were 0.65 times 10^5 cells/ml. Four separate suspension cultures were employed with the first suspension culture having no additions. The second suspension culture included 100 microliters of the solvent DMSO per 10 ml of culture (control). The third culture contained 1 ug/ml of 3[[5-methyl-2 thienyl]methylene]-2, 4 (3H, 5H) furandione and the fourth culture contained 1 ug/ml of 3[[3-methyl-2-thienyl]methylene]-2, 4 (3H, 5H) furandione. The cell concentration of each of the four cultures was determined. After three days and again after five days.
In this example, aliquots of 1.0, 5.0 and 10.0 mcg/ml of each of the family compounds was prepared and assayed against KS62 strain stem-cell human leukemia cells in an in vitro procedure as done in Example 3 above.

A further assay has as its system human tumor H5318 OVARY. Description: Human Tumor Stem Cell Assay, colony growth after one hour exposure. The note with it: HI: furandione 1.0 mcg/ml; standard drugs 50% of peak plasma concentration; 1 h. The source says: (§1) The in vitro Human Tumor Stem Cell Assay procedure described as follows has several advantages for testing the effectiveness of chemotherapy drugs such as the 3-(heteroarylalkylene)-2,4(3H,5H)-furandiones. The first advantage is that fresh tumor cells from a variety of tumor types were used rather than a small number of cell lines which have undergone severe selection pressures as they are passed in vitro. The second advantage is that only the anchorage-independent tumor cells will form colonies in soft agar so that any non-malignant cells present in the sample will not form colonies. Perhaps the most important advantage, however, is the emphasis on cells which have the ability to form colonies. These cells, which are generally called stem cells, usually comprise only a small percentage of all tumor cells. They are thought to be the most important cells for growth and distant spread of a tumor. In particular, these cells have the potential to leave the primary tumor and form new tumors at distant sites (called metastases). It is the effectiveness against these very important stem cells that the Human Tumor Stem Cell Assay measures.
(§2) One of the 3-(heteroarylalkylene)-2,4(3H,5H)-furandione compounds, 3-[(5-methyl-2-thienyl) methylene]-2,4(3H,5H)-furandione was evaluated against a series of 10 human tumors in the in vitro Human Tumor Cell Assay, along with conventional and standard chemotherapy agents.
(§3) In the procedure, a single cell suspension was prepared from tumors excised from patients during therapeutic or diagnostic surgical procedures. The human tumor cells were exposed to known anticancer drugs or to [(5-methyl-2-thienyl)methylene]-2,4 (3H, 5H)-furandione at a low (0.2 mcg/ml) or a high (1.0 mcg/ml) concentration for one hour. […] The suspension was washed with tissue culture medium to remove the drug.
(§4) The suspension was then cultured in a double soft agar suspension. Control cells which had been treated identically, except for exposure to the drugs, were also cultured. After one to two weeks, both the tumor cells and the control cells formed colonies in the soft agar which were enumerated under a microscope. The number of colonies grown from the drug-treated cells was compared to the number of colonies grown from the control cells, and the percentage growth after exposure to the drug was calculated.
(§5) The results are illustrated in Table 1, wherein the various numbers indicate the percentage of growth. For example, a small number like 6 means that the number of colonies is only 6% of the number without addition of the compound. On the other hand, a large number like 120 means that the number of colonies is 20% greater with the compound than without.
(§6) Of the nine tumors for which the higher concentration (1.0 mcg/ml) of the furandione was used, five gave inhibition of colony growth corresponding to borderline sensitive (30-50% growth) and four gave inhibition corresponding to sensitivity (0-30% growth). Clinical drugs are normally tested at 10% of their peak plasma concentration. For the standard chemotherapy drugs shown in Table 1, the low concentration (LO) corresponds to this 10% level, and the high concentration (HI) is at 50% of the peak plasma concentration. Of the same nine tumors, only two would have been rated as sensitive or borderline sensitive to any of the other clinical drugs tested.

The next assay concerns human tumor H5331 OVARY. The description is as above. The settings on record: HI: furandione 1.0 mcg/ml; standard drugs 50% of peak plasma concentration; 1 h.
Description: as §1, §2, §3, §4, §5, §6

Another assay concerns human tumor H5330 THYMUS. The assay is described as above. The note with it: 1 h.
Description: as §1, §2, §3, §4, §5, §6

The test system of assay [2] is human tumor H5325 SARCOMA. The assay is described as above. The note with it: 1 h.
Description: as §1, §2, §3, §4, §5, §6

The mark [3] stands for this setting: HI: furandione 1.0 mcg/ml, standard drugs 50% of peak plasma concentration.
Setting [4] is: LO: furandione 0.2 mcg/ml, standard drugs 10% of peak plasma concentration.

By inhibition is commonly meant the drop in the measured response relative to a control, in per cent. Usually % Inhibition stands for the percentage by which the read-out fell short of the control. The low end stands for a response near the control, the high end for a response far below the control.

In turn, `Cc1ccc(C=CC=C2C(=O)CNC2=O)s1` [Compound 67, 3-[(5-methyl-2-thienyl)propylenediene]-2,4(3H,5H) pyrrolidinedione] gave an inhibition at 1 µg/mL in assay [1] (1.0 mcg/ml) of 0%. For the same compound, testing at 5 µg/mL in assay [1] (5.0 mcg/ml) gave an inhibition of 0%. This compound also came in with an inhibition at 10 µg/mL in assay [1] (10.0 mcg/ml) of 94%.
Regarding `O=C1COC(=O)C1=Cc1ccc(Cl)c(Cl)c1` [Compound 55, 3-[(3,4-dichloro-1-phenyl)methylene]-2,4(3H,5H) -furandione], the “% Inhibition” value in assay [1] (1.0 mcg/ml), in assay [1] (5.0 mcg/ml) and in assay [1] (10.0 mcg/ml) was 0% throughout.
`Cc1ccc(C=C2C(=O)CSC2=O)s1` [Compound 69]: the inhibition at 1 µg/mL in assay [1] (1.0 mcg/ml) came out at 13%. Besides, the inhibition at 5 µg/mL in assay [1] (5.0 mcg/ml) worked out at 41%. This compound showed an inhibition at 10 µg/mL in assay [1] (10.0 mcg/ml) of 100%.
`O=C1COC(=O)C1=Cc1ccc(N2CCCCC2)s1` [Compound 56]: the “% Inhibition” value in assay [1] (1.0 mcg/ml), in assay [1] (5.0 mcg/ml) and in assay [1] (10.0 mcg/ml) was 0% each time.
Take `CN(C)c1nc(N(C)C)nc(N(C)C)n1` [HXM, HEXAMETHYLMELAMINE]: the “percentage of growth (colonies vs control)” value (shortened to “percentage of growth”) came out at 102% in the assay with human tumor H5318 OVARY and 84% in the assay on human tumor H5331 OVARY.
Compound `CCOC(=O)c1ccc(C=C2C(=O)COC2=O)s1` [Compound 45, 3-[(5-ethoxycarbonyl-2-thienyl)-methylene]-2,4(3H,5H) -furandione] yielded an inhibition at 1 µg/mL in assay [1] (1.0 mcg/ml) of 0%. In assay [1] (5.0 mcg/ml), this compound yielded an inhibition at 5 µg/mL of 0%. The same compound yielded an inhibition at 10 µg/mL in assay [1] (10.0 mcg/ml) of 100%.
`CCOC(=O)c1ccc(C=C2C(=O)OC(C)(C)C2=O)s1` [Compound 61, 3-(5-carboxyethyl-2-thienyl)methylene1-5.5-dimethyl 11-2,4(3H)furandione] had an inhibition at 1 µg/mL in assay [1] (1.0 mcg/ml) of 0%. In assay [1] (5.0 mcg/ml), the inhibition at 5 µg/mL came to 18%. In assay [1] (10.0 mcg/ml), the inhibition at 10 µg/mL was determined as 42%.
For `O=C1CSC(=O)C1=Cc1ccc(Br)s1` [Compound 70, 3-[(5-bromo-2-thienyl)methylene]-2.4(3H,5H)-1-thiophene dione] the same measures were 22%, 30% and 54%.
As for `O=C1CNC(=O)C1=Cc1ccc(N2CCCCC2)s1` [Compound 68, 3-(5-N-piperdyl-2-thienyl)methylene1-2.4(3H.5H) pyrrolidinedione], the “% Inhibition” value in assay [1] (1.0 mcg/ml), in assay [1] (5.0 mcg/ml) and in assay [1] (10.0 mcg/ml) was 0% each time.
In assay [1] (1.0 mcg/ml), `Cc1ccc(C=CC=C2C(=O)COC2=O)s1` [Compound 53, 3-[(5-methyl-2-thienyl)propylenediene)-2,4(3H,5H)-furandione] yielded an inhibition at 1 µg/mL of 0%. Further, in assay [1] (5.0 mcg/ml), the inhibition at 5 µg/mL stood at 71%. The compound further displayed an inhibition at 10 µg/mL in assay [1] (10.0 mcg/ml) of 99%.
The corresponding values for `CN(C)c1ccc(C=C2C(=O)COC2=O)cc1` [Compound 57] are 17%, 94% and 96%.
In assay [1] (1.0 mcg/ml), `O=C1COC(=O)C1=Cc1ccc(I)s1` [Compound 48, 3-[(5-iodo-2-thienyl)-methylene]-2.4(3H,5H)-furandione] displayed an inhibition at 1 µg/mL of 0%. In assay [1] (5.0 mcg/ml), this compound registered an inhibition at 5 µg/mL of 0%. For the same compound, the inhibition at 10 µg/mL in assay [1] (10.0 mcg/ml) worked out at 98%.
As for `CN(C)/N=N/c1[nH]cnc1C(N)=O` [DTIC, DACARBAZINE], the “percentage of growth” value was determined as 59% in the assay with human tumor H5330 THYMUS (setting [3]) and 91% with human tumor H5330 THYMUS (setting [4]).
`COc1ccc(C=C2C(=O)COC2=O)c(OC)c1` [Compound 52, 3-[(2,4-dimethoxy-1-phenyl)methylene]-2,4(3H,5H)-furandione]: the inhibition at 1 µg/mL in assay [1] (1.0 mcg/ml) was 8%. The inhibition at 5 µg/mL in assay [1] (5.0 mcg/ml) is 38%. In assay [1] (10.0 mcg/ml), this compound yielded an inhibition at 10 µg/mL of 95%.
For `CCOC(=O)c1ccc(C=C2C(=O)CNC2=O)s1` [Compound 65] the same measures were 7%, 32% and 75%.
For `Cc1ccc(C=C2C(=O)CNC2=O)s1` [Compound 63, 3-[(5-methyl-2-thienyl)methylene] -2,4(3H.5H) pyrrolidinedione] the same measures were 0%, 0% and 0%.
For `CC1(C)OC(=O)C(=Cc2ccc(Br)s2)C1=O` [Compound 60] the same measures were 0%, 96% and 100%.
On to `O=C1COC(=O)C1=Cc1ccc(Br)s1` [Compound 49], for which at 1 µg/mL the inhibition in assay [1] (1.0 mcg/ml) was 0%. This compound gave an inhibition at 5 µg/mL in assay [1] (5.0 mcg/ml) of 0%. At 10 µg/mL the inhibition in assay [1] (10.0 mcg/ml) was 98%.
Turning to `COc1cc([C@@H]2c3cc4c(cc3[C@@H](O[C@@H]3O[C@@H]5CO[C@@H](C)O[C@H]5[C@H](O)[C@H]3O)[C@H]3COC(=O)[C@H]23)OCO4)cc(OC)c1O` [VP16], the “percentage of growth” value in the assay on human tumor H5330 THYMUS (setting [3]) came to 77%.
In turn, `Cc1ccsc1C=C1C(=O)OC(C)(C)C1=O` [Compound 62, 3[(3-methyl-2-thienyl)methylene]-5,5dimethyl-2,4(3H,5H) furandione] returned an inhibition at 1 µg/mL in assay [1] (1.0 mcg/ml) of 6%. In addition, the inhibition at 5 µg/mL in assay [1] (5.0 mcg/ml) was 99%. The same compound displayed an inhibition at 10 µg/mL in assay [1] (10.0 mcg/ml) of 100%.
On to ACTINOMYCEN D, for which the entries for the “percentage of growth” value in assay [2] (setting [3]) and in assay [2] (setting [4]) were 22% and 6%, respectively.
Regarding `O=C1COC(=O)C1=Cc1ccc(C(=O)O)s1` [Compound 50, 3-[(5-carboxy-2-thienyl)-methylene]-2,4(3H,5H)-furandione], in assay [1] (1.0 mcg/ml), testing at 1 µg/mL gave an inhibition of 0%. This compound also yielded an inhibition at 5 µg/mL in assay [1] (5.0 mcg/ml) of 0%. Further, the inhibition at 10 µg/mL in assay [1] (10.0 mcg/ml) was found to be 0%.
Consider `CC1(C)OC(=O)C(=Cc2ccc(I)s2)C1=O` [Compound 59, 3-[(5-iodo-2-thienyl)methylene]-5.5-dimethyl-2,4 (3H)furandione], for which 1 µg/mL produced 1% inhibition in assay [1] (1.0 mcg/ml). Further, in assay [1] (5.0 mcg/ml), 5 µg/mL produced 37% inhibition. The same compound gave an inhibition at 10 µg/mL in assay [1] (10.0 mcg/ml) of 94%.
The corresponding values for `Cc1ccsc1C=C1C(=O)CNC1=O` [Compound 66, 3-(3-methyl-2-thienyl)methylene1-2,4(3H,5H) pyrrolidinedione] are 0%, 15% and 54%.
For `Cc1ccc(C=C2C(=O)OC(C)(C)C2=O)s1` [Compound 58] the same measures were 51%, 97% and 100%.
For `O=C1COC(=O)C1=CC=Cc1ccc(Br)s1` [Compound 54] the same measures were 27%, 99% and 100%.
Regarding `Cc1ccsc1C=C1C(=O)COC1=O` [Compound 51, 3-[(3-methyl-2-thienyl)methylene]-2.4(3H.5H)-furandione], testing at 1 µg/mL in assay [1] (1.0 mcg/ml) gave an inhibition of 37%. This compound yielded an inhibition at 5 µg/mL in assay [1] (5.0 mcg/ml) of 100%. In assay [1] (10.0 mcg/ml), this compound displayed an inhibition at 10 µg/mL of 100%.
As for `O=C1CNC(=O)C1=Cc1ccc(Br)s1` [Compound 64], 1 µg/mL produced 0% inhibition in assay [1] (1.0 mcg/ml). In assay [1] (5.0 mcg/ml), at 5 µg/mL the inhibition was 0%. For the same compound, testing at 10 µg/mL in assay [1] (10.0 mcg/ml) gave an inhibition of 0%.

(Values after patent US4996227A, “3-(heteroarylalkyene)- and 3-(arylalkylene)-2,4(3H,5H)-heterocyclic diones as cancer chemotherapy drugs” (priority 1989, dated 1991).)
